Here are results for 33 molecules from ChEMBL document CHEMBL1201862, “PubChem BioAssay data set” (2004).

Calls of active or inactive are those of the source. For most assays here, no stated cut-off is given here; in the data, actives have a measured EC50 and inactives only a lower limit.

The target of assay [1] is T1, Rac GTPase-activating protein 1 (Homo sapiens, UniProt Q9H0H5).
T1 sequence (Q9H0H5 whole entry): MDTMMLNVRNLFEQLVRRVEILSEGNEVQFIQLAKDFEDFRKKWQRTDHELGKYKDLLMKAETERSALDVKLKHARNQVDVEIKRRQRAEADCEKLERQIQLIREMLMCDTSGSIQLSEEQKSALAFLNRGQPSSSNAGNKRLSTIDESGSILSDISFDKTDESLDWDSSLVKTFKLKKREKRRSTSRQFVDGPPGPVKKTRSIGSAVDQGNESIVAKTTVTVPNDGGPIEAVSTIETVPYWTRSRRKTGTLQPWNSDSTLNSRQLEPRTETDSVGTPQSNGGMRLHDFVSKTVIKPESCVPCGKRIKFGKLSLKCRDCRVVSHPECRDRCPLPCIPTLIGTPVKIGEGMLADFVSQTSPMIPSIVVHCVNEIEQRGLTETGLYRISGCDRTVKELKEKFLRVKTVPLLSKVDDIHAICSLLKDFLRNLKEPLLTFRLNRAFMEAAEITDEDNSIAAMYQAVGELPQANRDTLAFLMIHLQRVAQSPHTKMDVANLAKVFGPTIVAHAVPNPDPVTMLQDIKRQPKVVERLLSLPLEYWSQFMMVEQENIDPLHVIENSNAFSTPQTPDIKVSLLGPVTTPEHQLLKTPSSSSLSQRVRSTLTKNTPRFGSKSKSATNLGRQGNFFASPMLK
As to the kind of experiment: MgcRacGAP GTPase-activating activity inhibitors, confirmation, biochemical, ADP Hunter fluorescence, primary and confirmatory (AID 624330). It is filed as functional.

Assay [2] concerns the target Cytochrome P450 2D6 (Homo sapiens, UniProt P10635).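 Further: CYP2D6 member of a cytochrome P450 panel assay.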
For assay [3], the target named is T2, Cytochrome P450 1A2 (Homo sapiens, UniProt P05177).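 Further: PubChem cytochrome P450 panel assay, CYP1A2 panel member.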
T2 sequence (P05177 whole entry): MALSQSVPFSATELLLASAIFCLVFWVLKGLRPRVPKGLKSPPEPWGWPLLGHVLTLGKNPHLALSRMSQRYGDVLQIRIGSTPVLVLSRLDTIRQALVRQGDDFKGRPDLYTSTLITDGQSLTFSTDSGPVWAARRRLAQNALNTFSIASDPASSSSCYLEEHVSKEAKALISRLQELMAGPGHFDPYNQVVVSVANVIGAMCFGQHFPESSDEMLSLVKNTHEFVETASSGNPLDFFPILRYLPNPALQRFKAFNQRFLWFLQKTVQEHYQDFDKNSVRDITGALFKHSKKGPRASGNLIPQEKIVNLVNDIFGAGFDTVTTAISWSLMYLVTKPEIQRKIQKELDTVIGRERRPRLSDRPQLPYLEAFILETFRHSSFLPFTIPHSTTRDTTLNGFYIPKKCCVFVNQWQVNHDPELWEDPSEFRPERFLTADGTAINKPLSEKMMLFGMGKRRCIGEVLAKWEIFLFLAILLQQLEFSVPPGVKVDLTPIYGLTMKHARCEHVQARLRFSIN

In assay [4] the target is Cytochrome P450 3A4 (Homo sapiens, UniProt P08684).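 Further: CYP3A4 tested as one member of a cytochrome P450 panel screen.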
Cytochrome P450 3A4, sequence (P08684 whole entry): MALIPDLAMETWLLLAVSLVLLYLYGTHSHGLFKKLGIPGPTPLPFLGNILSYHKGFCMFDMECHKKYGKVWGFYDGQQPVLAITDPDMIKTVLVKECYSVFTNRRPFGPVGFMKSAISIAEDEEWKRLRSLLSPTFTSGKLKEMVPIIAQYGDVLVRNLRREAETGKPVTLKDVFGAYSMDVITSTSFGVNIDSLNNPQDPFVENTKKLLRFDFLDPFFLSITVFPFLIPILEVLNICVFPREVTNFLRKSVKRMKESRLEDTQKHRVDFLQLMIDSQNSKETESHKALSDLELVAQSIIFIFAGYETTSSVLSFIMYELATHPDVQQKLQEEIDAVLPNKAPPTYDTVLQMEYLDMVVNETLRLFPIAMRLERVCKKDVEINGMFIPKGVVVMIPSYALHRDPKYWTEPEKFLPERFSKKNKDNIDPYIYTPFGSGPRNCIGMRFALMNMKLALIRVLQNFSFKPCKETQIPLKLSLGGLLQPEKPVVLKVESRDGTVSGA
Assay [5] is described as follows: Luminescence Cell-Based Dose Confirmation HTS to Identify Activators of 5'UTR Stem-Loop Driven Alpha-Synuclein mRNA Translation in H4 Neuroglioblastoma Cells. [Related pubchem assays: 1829 (Project Summary), 1814 (Primary HTS)]. Format: functional.
Assay [6] is described as follows: Luminescence Cell-Based Dose Response HTS to Identify Activators of Luciferase Translation or Activity in H4 […] Cells. [Related pubchem assays: 1829 (Project Summary), 1814 (Primary HTS)]. Format: functional.
Assay [7] has as its system H4. Put plainly: Luminescence Cell-Based Dose Response HTS to Identify Activators of 5'UTR Stem-Loop Driven Prion Protein mRNA Translation in H4 Neuroglioblastoma Cells. [Related pubchem assays: 1829 (Project Summary), 1814 (Primary HTS)]. Particulars: Homo sapiens. Format: functional.
The nature of assay [8]: NIH-3T3 fibroblast cytotoxicity, dose response, cytotoxicity control, cell-based, fluorescence, Alamar Blue, secondary assay (AID 2327).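 Further: NIH-3T3 mouse fibroblasts cultured with fluconazole at 8 µg/mL.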 It is filed as functional. On the technique in general: Resazurin is reduced to fluorescent resorufin, in cell work by metabolically active cells.
Assay [9] in a line: C. albicans growth with fluconazole, confirmation, fluorescence, retest (AID 2467). It is filed as functional, cell-based.
Assay [10] has as its system Streptococcus sp. 'group A'. As to the kind of experiment: growth inhibition of control SK(-) GAS strain, dose response, counter-screen for streptokinase expression inhibitor project, luminescence, kanamycin, BacTiterGlo, confirmation (AID 1900). Format: functional, organism-based.
For assay [11], the target named is T3, Streptokinase A (Streptococcus pyogenes serotype M1, UniProt P10520).
T3 sequence (P10520 whole entry): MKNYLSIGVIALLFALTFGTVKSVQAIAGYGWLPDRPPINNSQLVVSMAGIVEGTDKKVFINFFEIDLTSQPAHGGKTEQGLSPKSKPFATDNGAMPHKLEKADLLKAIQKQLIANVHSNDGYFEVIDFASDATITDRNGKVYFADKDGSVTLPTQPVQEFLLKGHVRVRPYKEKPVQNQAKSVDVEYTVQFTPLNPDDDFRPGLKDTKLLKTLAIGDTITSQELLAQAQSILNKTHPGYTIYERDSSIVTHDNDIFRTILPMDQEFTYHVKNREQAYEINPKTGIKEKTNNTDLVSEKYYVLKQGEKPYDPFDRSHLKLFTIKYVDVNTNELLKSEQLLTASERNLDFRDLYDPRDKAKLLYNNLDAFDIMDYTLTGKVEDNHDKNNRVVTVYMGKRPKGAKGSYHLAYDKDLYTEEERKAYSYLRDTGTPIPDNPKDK
As to the kind of experiment: S. pyogenes streptokinase expression inhibitors, potency, dose response, plasminogen activation absorbance, OD405 (AID 1914).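 Further: secreted streptokinase activity via plasminogen activation per viability signal from cell pellet.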 Format: functional, Streptococcus pyogenes M1 GAS.

Assay [12] deals with Streptococcus. As to the kind of experiment: Group A Streptococcus viability loss, dose response, counter-screen for streptokinase expression inhibitor project, luminescence, BacTiterGlo (AID 1915).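 Further: potency for reduction of bacterial viability or growth.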 It is filed as functional, organism-based. A general note: A counterscreen serves to expose hits that act by an unwanted route or on another target.
Assay [13] relates to INS1. Put plainly: beta cell apoptosis inhibitors, cytokine rescue, dose response, luminescence, retest (AID 449756).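 Further: cell death triggered by IL-1 beta plus TNF-alpha plus IFN-gamma mixture; protective hits raise ATP signal compared with cytokine alone wells.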 Format: functional, cell-based. Particulars: Rattus norvegicus.
Assay [14] deals with Paired box protein Pax-8 (Homo sapiens, UniProt Q06710). Put plainly: inhibitors of PAX8-driven TPO luciferase reporter, dose response, RMG-I cells, cherry-pick (AID 687027).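 Further: luciferase reporter driven by Pax8 target thyroperoxidase promoter measured by SteadyGlo luminescence.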 It is filed as functional, cell-based.
Paired box protein Pax-8, sequence (Q06710 whole entry): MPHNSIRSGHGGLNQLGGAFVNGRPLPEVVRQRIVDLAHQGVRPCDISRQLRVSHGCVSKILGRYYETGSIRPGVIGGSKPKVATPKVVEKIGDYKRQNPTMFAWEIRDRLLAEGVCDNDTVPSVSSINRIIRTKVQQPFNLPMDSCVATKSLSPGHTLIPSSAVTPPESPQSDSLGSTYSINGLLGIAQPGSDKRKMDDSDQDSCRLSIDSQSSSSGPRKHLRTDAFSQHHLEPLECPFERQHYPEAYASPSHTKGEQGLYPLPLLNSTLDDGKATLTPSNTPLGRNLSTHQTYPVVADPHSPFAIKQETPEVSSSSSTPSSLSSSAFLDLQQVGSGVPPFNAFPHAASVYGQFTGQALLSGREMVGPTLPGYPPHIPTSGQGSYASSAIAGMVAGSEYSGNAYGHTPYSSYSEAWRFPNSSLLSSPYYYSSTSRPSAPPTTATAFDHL

Cytochrome P450 2D6, sequence (P10635 whole entry): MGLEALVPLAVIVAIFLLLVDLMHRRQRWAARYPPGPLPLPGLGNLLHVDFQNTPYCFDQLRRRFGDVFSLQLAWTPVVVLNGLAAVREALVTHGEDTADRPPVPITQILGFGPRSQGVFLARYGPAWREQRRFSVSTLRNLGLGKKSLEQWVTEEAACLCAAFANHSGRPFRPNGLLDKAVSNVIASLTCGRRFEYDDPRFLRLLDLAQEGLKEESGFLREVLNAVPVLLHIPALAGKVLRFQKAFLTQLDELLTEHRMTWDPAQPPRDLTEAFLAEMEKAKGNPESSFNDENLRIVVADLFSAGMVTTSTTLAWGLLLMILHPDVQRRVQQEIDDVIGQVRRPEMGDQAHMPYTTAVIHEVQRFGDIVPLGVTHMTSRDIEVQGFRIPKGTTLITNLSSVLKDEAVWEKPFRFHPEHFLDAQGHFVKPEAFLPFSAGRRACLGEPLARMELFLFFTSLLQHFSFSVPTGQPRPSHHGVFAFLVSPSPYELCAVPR

As for `COc1cc2c(CCNC(C)=O)c[nH]c2cc1O`, in assay [1], the half-inhibitory concentration (IC50) was 52.3 µM (active). Also, the AC50 was 39.8 µM (inconclusive) in assay [2], 31.6 µM (inconclusive) in assay [3] and 15.8 µM (inconclusive) in [4].

Take `COC(=O)C1(Cc2cc(-c3ccccc3)no2)CCN(C(=O)OC(C)(C)C)CC1`: the EC50 is 9.17 µM (active) in [5], 49.6 µM (active) in [6] and 55.7 µM (active) in assay [7].

Regarding `CN1C(=O)/C(=C/c2cn(CC(=O)N3CCCCC3)c3ccccc23)NC1=S`, the EC50 in assay [8] was > 150 µM (inactive); in assay [9], > 38 µM (not active).

On to `FC(F)(F)c1cccc(-c2nc3nc(Cl)c(Cl)nc3[nH]2)c1`, for which the EC50 in [10] is 7.96 µM (active); in [11] it was > 150 µM (not active); in [12] it was 94.8 µM (active). Also, the concentration at half-maximal activity (AC50) in assay [13] is 3.23 µM (active); in assay [4], 5.01 µM (inconclusive).

Regarding `C=CCNc1ncnc2c1[nH]c1ccc(Cl)cc12`, the EC50 in assay [5] is 89.5 µM (active); in assay [6] it was 43 µM (active).

With `CCOc1cccc(-c2cc(-c3nnc(S)n3CC)c3ccccc3n2)c1`, the EC50 in [8] is > 160 µM (inactive); in assay [9], 4.13 µM (active).

With `CCc1nnc(NC(=O)CSc2nc3c(cc2C#N)CCC3)s1`, the EC50 in assay [6] is 0.131 µM (active); in assay [7] it was > 120 µM (not active).

As to `CC(=O)N1CCC(=NNc2nc3ccccc3s2)CC1`, the EC50 in assay [8] was > 160 µM (inactive); in assay [9], > 38 µM (not active).

`O=C(CNC(=O)c1cn2ccccc2n1)Nc1ccc(F)c(F)c1`: the values for the EC50 in [5], in assay [6] and in assay [7] were 0.453 µM (active), 45.5 µM (active) and > 120 µM (not active), respectively.

Take `O=C(Nc1ccc2c(c1)OCCO2)NC12CC3CC(CC(C3)C1)C2`: the half-maximal effective concentration (EC50) in assay [5] was 5.22 µM (active); in [6], 0.516 µM (active); in [7], > 120 µM (not active).

With `COc1cc(/C=C/C(=O)OCC(=O)NC(=O)NC(C)(C)C)ccc1O`, in assay [1], the IC50 is 57.5 µM (active).

Take `COC(=O)c1c(-c2cccs2)csc1NC(=O)c1cccnc1`: the figures for the EC50 in assay [8] and in [9] were > 160 µM (inactive) and 2.49 µM (active), respectively.

As to `O=C(NCc1ccc2c(c1)OCO2)Nc1ccc(F)cc1`, the concentration giving a half-maximal response (EC50) in assay [10], in [11] and in [12] was > 150 µM (not active) in each case.

For the molecule `COc1cc(OC)c([C@H]2C=C(C)[C@H]3C[C@@H]2C3(C)C)c(OC)c1`, the EC50 in [10] is 4.7 µM (active); in [11], 63.3 µM (active); in assay [12], 9.95 µM (active).

Turning to `Cc1ccc(C(=O)Cn2ncsc2=N)cc1`, the half-maximal effective concentration (EC50) was 13.5 µM (active) in assay [5] and 16.8 µM (active) in assay [6].

As for `Cc1ccc(C2NNC(=O)C2NC(=O)c2ccccc2)cc1` (stereo not drawn), the results for the EC50 in [5], in [6] and in assay [7] were 11.3 µM (active), 9.08 µM (active) and 48.6 µM (active), respectively.

For the molecule `N#Cc1c(Cl)nsc1NC(=O)c1ccccc1`, the half-maximal effective concentration (EC50) in assay [8] was 22.2 µM (active); in assay [9], 0.626 µM (active). Also, the AC50 in [13] was 3.29 µM (active).

`CCc1cc2c(=O)c(-c3nc4ccccc4n3C)c(COCC(=O)O)oc2cc1O`: the half-maximal effective concentration (EC50) in assay [5], in [6] and in assay [7] was > 120 µM (not active) throughout.

For `O=C(/C=C/c1ccc(S(=O)(=O)NCc2ccco2)cc1)NCc1ccccc1Cl`, the 50% effective concentration (EC50) was > 120 µM (not active) in assay [5], > 120 µM (not active) in assay [6] and 16.4 µM (active) in [7].

Take `O=C1C2CCN(CC2)C1Cc1ccc(OCc2ccccc2)cc1` (stereo not drawn): the concentration giving a half-maximal response (EC50) in [8] was 24 µM (inconclusive); in assay [9] it was 2.41 µM (active).

In the case of `COCCCn1c(=S)[nH]c2sc3c(c2c1=O)CCCC3`, the IC50 in assay [1] was 32.9 µM (active).

As to `O=C(COc1ccc2c(c1)CCC2)NCc1cccc(Cl)c1`, the half-maximal effective concentration (EC50) in assay [8] is > 160 µM (inconclusive); in assay [9], > 38 µM (not active).

As for `C=CCOc1ccccc1CN1CCCN(C)CC1`, in [1], the half-inhibitory concentration (IC50) is 178 µM (active).

`CSc1nc2nccc(/C=C\c3ccccc3)n2n1`: the concentration giving a half-maximal response (EC50) in [5], in assay [6] and in assay [7] was > 120 µM (not active) throughout.

In the case of `Cc1c(C(=O)Nc2ccccc2)sc2nc(-c3ccccc3)cn12`, the EC50 in assay [5] is 4.41 µM (active); in [6] it was 6.59 µM (active); in assay [7] it was 44.2 µM (active).

Take `Cc1cc(C)n2nc(Nc3ccccc3)cc2n1`: the values for the EC50 in assay [5] and in [6] were 6.86 µM (active) and 15.8 µM (active), respectively.

As for `COc1cc(/C=C2/C(=N)N3C=C(C)SC3=NC2=O)ccc1O`, the IC50 in assay [1] was 71.9 µM (active).

As to `Oc1ccc(C[C@H]2CNC(=S)N2CC2CCCN2C[C@H](Cc2ccc(O)cc2)N2C[C@H](Cc3ccc(O)cc3)N(CC3CCCCCC3)C2=S)cc1` (stereo partly drawn), the AC50 in assay [14] is 5.35 µM (active).

Consider `Oc1ccc(Cc2ccccc2)c2cccnc12`, for which the AC50 in assay [14] was 4.48 µM (active).

Turning to `C[C@@H]1CCCCO[C@H](CN(C)S(=O)(=O)c2ccc(Cl)cc2)[C@H](C)CN([C@@H](C)CO)C(=O)c2cc(NS(=O)(=O)c3ccc(F)cc3)ccc2O1`, the AC50 in [14] is 4.33 µM (active).

For `C[C@H]1CCCCO[C@@H](CN(C)C(=O)c2ccccc2)[C@@H](C)CN([C@@H](C)CO)C(=O)c2cc(NC(=O)Nc3ccc(C(F)(F)F)cc3)ccc2O1`, the AC50 in [14] was 3.76 µM (active).

With `COc1ccccc1-c1ccc2c(c1)O[C@H](CN(C)Cc1ccc3c(c1)OCO3)[C@H](C)CN([C@@H](C)CO)S2(=O)=O`, the AC50 in assay [14] is 13.5 µM (active).

Consider `O=[N+]([O-])c1ccccc1N/N=C1\CCc2ccccc21`, for which the half-maximal effective concentration (EC50) in [6] was 0.268 µM (active); in assay [7], 2.24 µM (active).

By IC50 is commonly meant the concentration needed to halve the response being measured. What is called AC50 is the concentration at which the activity in the assay is half-maximal. As usually defined, the EC50 is the concentration that produces a half-maximal response.
